In US12091425B2 (AMGEN INC., priority 2016, dated 2024):
pIC50: −log10 of the molar value.

Each molecule was assayed against T1, Mcl-1/Bim interaction, recombinant human Mcl-1 (171-327) (Homo sapiens, UniProt Q07820) (assay: Cell free Mcl-1: Bim Affinity Assay (Mcl-1 HTRF)). Conditions: TR-FRET, 0.1 nM Mcl-1 (171-327), 0.05 nM biotin-Bim (51-76).
T1 construct: made in house
Format: binding
Procedure: Cell free Mcl-1: Bim Affinity Assay (Mcl-1 HTRF)
The inhibition of the Mcl-1/Bim interaction was measured using a time-resolved fluorescence resonance energy transfer (TR-FRET) assay. […] A biotinylated peptide derived from human Bim (residues 51-76) was purchased from CPC Scientific (San Jose, CA). The TR-FRET assay was conducted in a 384-well white OptiPlatem (PerkinElmer, Waltham, MA) in a total volume of 40 μL. […] The reaction plates were further incubated overnight and then were read on an Envision® multimode reader (PerkinElmer). […] The IC50 values of test compounds were determined from duplicate data by analyzing competition curves using a four-parameter sigmoidal model in GraphPad Prism (GraphPad Software, San Diego, CA) or in Genedata Screener® (Genedata, Basel, Switzerland).

T1 sequence (Q07820 171-327): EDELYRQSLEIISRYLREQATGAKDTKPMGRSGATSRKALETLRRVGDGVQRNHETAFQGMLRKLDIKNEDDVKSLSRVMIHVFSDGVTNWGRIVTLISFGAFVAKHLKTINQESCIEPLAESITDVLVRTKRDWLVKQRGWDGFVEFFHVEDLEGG

SMILES	pIC50
CNC(=O)CO[C@H]1/C=C/CC[C@@H](C)S(=O)(=O)NC(=O)c2ccc3c(c2)N(C[C@@H]2CC[C@H]21)C[C@@]1(CCCc2cc(Cl)ccc21)CO3 [Example 404, 2-(((1S,3′R,6′R,7′S,8′E,12′R)-6-chloro-12′-methyl-13′,13′-dioxido-15′-oxo-3,4-dihydro-2H-spiro[naphthalene-1,22′-[20]oxa[13]thia[1,14]diazatetracyclo[14.7.2.0^3,6.0^19,24]pentacosa [8,16,18,24]tetraen]-7′-yl)oxy)-N-methylacetamide]	9.36
CN1CCCCS(=O)(=O)NC(=O)c2ccc3c(c2)N(C[C@@H]2CC[C@H]2C1=O)C[C@@]1(CCCc2cc(Cl)ccc21)CO3 [Example 99, (1S,3′R,6′R)-6-chloro-8′-methyl-3,4-dihydro-2H,7′H,15′H-spiro[naphthalene-1,22′-[20]oxa[13]thia[1,8,14]triazatetracyclo[14.7.2.0^3,6.0^19,24]pentacosa[16,18,24]trien]-7′,15′-dione 13′,13′-dioxide]	7.68
CC[C@@H]1CC/C=C/[C@@H](NC(=O)C(C)C)[C@@H]2CC[C@H]2CN2C[C@@]3(CCCc4cc(Cl)ccc43)COc3ccc(cc32)C(=O)NS1(=O)=O [Example 1081]	9.02
COc1ccc(CN2CCCCS(=O)(=O)NC(=O)c3ccc4c(c3)N(C[C@@H]3CC[C@H]3C2=O)C[C@@]2(CCCc3cc(Cl)ccc32)CO4)cc1 [Example 96, (1S,3′R,6′R)-6-chloro-8′-(4-methoxybenzyl)-3,4-dihydro-2H,7′H,15′H-spiro[naphthalene-1,22′-[20]oxa[13]thia[1,8,14]triazatetracyclo[14.7.2.0^3,6.0^19,24]pentacosa[16,18,24]trien]-7′,15′-dione 13′,13′-dioxide]	7.50
O=C1NS(=O)(=O)C/C=C/[C@H](O)[C@@H]2CC[C@H]2CN2C[C@@]3(CCCc4cc(Cl)ccc43)COc3ccc1cc32 [Example 341, (1S,3′R,6′R,7′S,8′E)-6-chloro-7′-hydroxy-3,4-dihydro-2H,13′H-spiro[naphthalene-1,20′-[18]oxa[11]thia[1,12]diazatetracyclo[12.7.2.0^3,6.0^17,22]tricosa[8,14,16,22]tetraen]-13′-one 11′,11′-dioxide]	8.15
CN(C)C(=O)[C@H]1CC/C=C/[C@H](O)[C@@H]2CC[C@H]2CN2C[C@@]3(CCCc4cc(Cl)ccc43)COc3ccc(cc32)C(=O)NS1(=O)=O (single isomer, unassigned) [Example 437]	8.42
COCC[C@@H]1CC/C=C/[C@H](O)[C@@H]2CC[C@H]2CN2C[C@@]3(CCCc4cc(Cl)ccc43)COc3ccc(cc32)C(=O)NS1(=O)=O (single isomer, unassigned) [Example 442]	9.53
CS(=O)(=O)CCO[C@@H]1CCCCCS(=O)(=O)NC(=O)c2ccc3c(c2)N(C[C@@H]2CC[C@H]21)C[C@@]1(CCCc2cc(Cl)ccc21)CO3 [Example 1096, (1S,3′R,6′R,7′R)-6-chloro-7′-(2-(methylsulfonyl)ethoxy)-3,4-dihydro-2H,15′H-spiro [naphthalene-1,22′-[20]oxa[13]thia[1,14]diazatetracyclo[14.7.2.0^3,6.0^19,24]pentacosa [16,18,24]trien]-15′-one 13′,13′-dioxide]	8.46
CC[C@@H]1CC/C=C\[C@H](OCC(=O)NC)[C@@H]2CC[C@H]2CN2C[C@@]3(CCCc4cc(Cl)ccc43)COc3ccc(cc32)C(=O)NS1(=O)=O [Example 964, 2-(((1S,3′R,6′R,7′S,8′Z,12′R)-6-chloro-12′-ethyl-13′,13′-dioxido-15′-oxo-3,4-dihydro-2H-spiro[naphthalene-1,22′-[20]oxa[13]thia[1,14]diazatetracyclo[14.7.2.0^3,6.0^19,24]pentacosa [8,16,18,24]tetraen]-7′-yl)oxy)-N-methylacetamide]	9.00
O=C1NS(=O)(=O)[C@H](C(F)(F)F)CCCC[C@H](O)[C@@H]2CC[C@H]2CN2C[C@@]3(CCCc4cc(Cl)ccc43)COc3ccc1cc32 (single isomer, unassigned) [Example 432]	9.00
CO[C@@H]1CCCCCCS(=O)(=O)NC(=O)c2ccc3c(c2)N(C[C@@H]2CC[C@H]21)C[C@@]1(CCCc2cc(Cl)ccc21)CO3 [Example 230, (1S,3′R,6′R,7′R)-6-chloro-7′-methoxy-3,4-dihydro-2H,16′H-spiro[naphthalene-1,23′-[21]oxa[14]thia[1,15]diazatetracyclo[15.7.2.0^3,6.0^20,25]hexacosa[17,19,25]trien]-16′-one 14′,14′-dioxide]	7.49

Same assay, conditions: cell free Mcl-1:Bim TR-FRET, recombinant human Mcl-1 (171-327)

SMILES	pIC50
O=C1NS(=O)(=O)CC/C=C/CC(=O)[C@@H]2CC[C@H]2CN2C[C@@]3(CCCc4cc(Cl)ccc43)COc3ccc1cc32 [Example 905, (1S,3′R,6′R,9′E)-6-chloro-3,4-dihydro-2H,7′H,15′H-spiro[naphthalene-1,22′-[20]oxa[13]thia[1,14]diazatetracyclo[14.7.2.0^3,6.0^19,24]pentacosa [9,16,18,24]tetraene]-7′,15′-dione 13′,13′-dioxide]	7.85
O=C1NS(=O)(=O)C[C@@H](CO)C/C=C/C[C@H](O)[C@@H]2CC[C@H]2CN2C[C@@]3(CCCc4cc(Cl)ccc43)COc3ccc1cc32.O=C1NS(=O)(=O)C[C@H](CO)C/C=C/C[C@H](O)[C@@H]2CC[C@H]2CN2C[C@@]3(CCCc4cc(Cl)ccc43)COc3ccc1cc32 (mixture of isomers) [Example 710]	7.59
CC[C@H]1CC/C=C/[C@H](O)[C@@H]2CC[C@H]2CN2C[C@@]3(CCc4cc(Cl)ccc43)COc3ccc(cc32)C(=O)NS1(=O)=O (single isomer, unassigned) [Example 699]	9.19
O=C1NS(=O)(=O)[C@@H](CO)CCCC[C@H](O)[C@@H]2CC[C@H]2CN2C[C@@]3(CCCc4cc(Cl)ccc43)COc3ccc1cc32 (single isomer, unassigned) [Example 713]	8.77
CC[C@@H]1C/C=C/[C@H](O)[C@@H]2CC[C@H]2CN2C[C@@]3(CCCc4cc(Cl)ccc43)COc3ccc(cc32)C(=O)NS1(=O)=O [Example 762, (1S,3′R,6′R,7′S,8′E,11′R)-6-chloro-7′-hydroxy-11′-ethyl-3,4-dihydro-2H,14′H-spiro[naphthalene-1,21′-[19]oxa[12]thia[1,13]diazatetracyclo[13.7.2.0^3,6.0^18,23]tetracosa[8,15,17,23]tetraen]-14′-one 12′,12′-dioxide]	9.24
CN(C(=O)C1CC1)[C@@H]1CCCCCS(=O)(=O)NC(=O)c2ccc3c(c2)N(C[C@@H]2CC[C@H]21)C[C@@]1(CCCc2cc(Cl)ccc21)CO3 (single isomer, unassigned) [Example 943]	7.79
O=C1NS(=O)(=O)CCOCCCC2CCC2CN2C[C@@]3(CCCc4cc(Cl)ccc43)COc3ccc1cc32 (stereo in doubt) [Example 827, (3S,6R,22S)-6′-chloro-3′,4′-dihydro-2′H,15H-spiro[10,20-dioxa-13-thia-1,14-diazatetracyclo[14.7.2.0^3,6.0^19,24]pentacosa-16,18,24-triene-22,1′-naphthalen]-15-one 13,13-dioxide]	8.45
CC#CC1=CC(O)CCC(C)S(=O)(=O)NC(=O)c2ccc3c(c2)N(CC2CCC12)CC1(CCCc2cc(Cl)ccc21)CO3 (single isomer, unassigned) [Example 605]	9.03
O=C1NS(=O)(=O)CCCCC[C@@H](CO)[C@@H]2CC[C@H]2CN2C[C@@]3(CCCc4cc(Cl)ccc43)COc3ccc1cc32 (single isomer, unassigned) [Example 906, (1S,3′R,6′R,7′R)-6-chloro-7′-(hydroxymethyl)-3,4-dihydro-2H,15′H-spiro[naphthalene-1,22′-[20]oxa[13]thia[1,14]diazatetracyclo[14.7.2.0^3,6.0^19,24]pentacosa [16,18,24]trien]-15′-one 13′,13′-dioxide or (1S,3′R,6′R,7′)-6-chloro-7′-(hydroxymethyl)-3,4-dihydro-2H,15′H-spiro[naphthalene-1,22′-[20]oxa[13]thia[1,14]diazatetracyclo[14.7.2.0^3,6.0^19,24]pentacosa [16,18,24]trien]-15′-one 13′,13′-dioxide]	8.04
CC[C@@H]1CCCC[C@H](O)[C@@H]2CC[C@H]2CN2C[C@@]3(CCc4cc(Cl)ccc43)COc3ccc(cc32)C(=O)NS1(=O)=O (single isomer, unassigned) [Example 695, (1S,3′R,6′R,7′S,12′R)-5-chloro-12′-ethyl-7′-hydroxy-2,3-dihydro-15′H-spiro[indene-1,22′-[20]oxa[13]thia[1,14]diazatetracyclo[14.7.2.0^3,6.0^19,24]pentacosa [16,18,24]trien]-15′-one 13′,13′-dioxide or (1S,3′R,6′R,7′S,12′S)-5-chloro-12′-ethyl-7′-hydroxy-2,3-dihydro-15′H-spiro[indene-1,22′-[20]oxa[13]thia[1,14]diazatetracyclo[14.7.2.0^3,6.0^19,24]pentacosa [16,18,24]trien]-15′-one 13′,13′-dioxide]	8.69
O=C1NS(=O)(=O)CCCOC[C@@H](O)[C@@H]2CC[C@H]2CN2C[C@@]3(CCCc4cc(Cl)ccc43)COc3ccc1cc32 (single isomer, unassigned) [Example 923, (3R,6R,7S,22S)-6′-chloro-7-hydroxy-3′,4′-dihydro-2′H,15H-spiro[9,20-dioxa-13-thia-1,14-diazatetracyclo[14.7.2.0^3,6.0^19,24]pentacosa-16,18,24-triene-22,1′-naphthalen]-15-one 13,13-dioxide or (3R,6R,7R,22S)-6′-chloro-7-hydroxy-3′,4′-dihydro-2′H,15H-spiro[9,20-dioxa-13-thia-1,14-diazatetracyclo[14.7.2.0^3,6.0^19,24]pentacosa-16,18,24-triene-22,1′-naphthalen]-15-one 13,13-dioxide]	7.75
